Experimental data from patent publication US20250340529A1, “Heterocyclic Compounds as Immunomodulators of PD-L1 Interactions” (Ascletis BioScience Co., Ltd, priority 2021, published 2025).

How the values were obtained:
PD-1/PD-L1 = PD-1/PD-L1 (Homo sapiens (Human), UniProt Q9NZQ7); experiment: PD-1/PD-L1 Homogeneous Time-Resolved Fluorescence (HTRF) binding assay; details: 3 nM PD1, 10 nM PD-L1, 25° C., PBS pH 7.4
In short: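 HTRF with His-tagged human PD-L1 (19-238, 10 nM) and Fc-tagged human PD-1 (25-167, 3 nM) preincubated with inhibitors 40 min in PBS pH 7.4, 0.05% Tween-20, 0.1% BSA, 1% DMSO, 25° C. Eu anti-human IgG and anti-His-APC added, 60 min; 665/620 nm ratio; IC50 from percent control activity fit.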

PD-L1/CHO-K1 cells = PD-L1/CHO-K1 cells (Homo sapiens (Human), UniProt Q9NZQ7); experiment: PD-L1 internalization (FACS, PD-L1/CHO-K1 cells); type: cell-based; details: % activation of PD-L1 internalization = 1 − PD-L1 signal; 17 hours incubation
In short: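 PD-L1/CHO-K1 cells treated 17 h at 37 °C with compound (0.2% DMSO final), then surface PD-L1 stained with PE anti-CD274 and read by flow cytometry. Signal normalized to vehicle (100%) and unstained control (0%); internalization = 1 − normalized PD-L1 signal.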

[1] = system: Hep3B-OS8-hPDL1 / Jurkat-NFAT-PD1 cells; experiment: PDL1 Jurkat-NFAT reporter assay; type: cell-based; details: Homo sapiens; 6 hours, luciferase
Procedure: PDL1 Jurkat-NFAT Reporter Assay
a. Preparation of Hep3B-OS8-hPDL1 • 1. Hep3B-OS8-hPDL1 cells were cultured in 1640 medium supplemented with 10% fetal bovine serum, 1% penicillin and streptomycin, in which 100 μg/mL G418 and Hygromycin B were also added. • 2. Cells were re-suspended with RPMI 1640 medium containing 10% FBS and the cell density was adjusted to 1.25E5 cells/mL. • 3. Cells were seeded into 96-well flat bottom plate (1.25E4 cells/100 μL/well). b. Compounds Solutions Preparation • 4. Remove the medium from pre-plated Hep3B-OS8-PDL1 cells. Wash once with 200 μL Assay Medium. • 5. Prepare the Compounds dilutions in RPMI 1640 medium with 10% FBS according to the Layout. • 6. Add compounds into each well in a volume of 50 μL in 9 concentrations (3, 1, 0.3, 0.1, 0.03, 0.01, 0.003, 0.001 and 0.0003 μM)}. Keytruda will be included as positive control at the concentration of 5 μg/mL. • 7. Incubate for 20-30 min at 37° C., 5% CO2. c. Preparation of Jurkat-NFAT-PD1 • 8. Jurkat-NFAT-PD1 cells were cultured in 1640 medium supplemented with 10% fetal bovine serum, 1% penicillin and streptomycin, in which 1000 μg/mL Hygromycin B and 0.3 μg/mL puromycin were also added. • 9. On the second day of assay, the cells were re-suspended with RPMI 1640 medium containing 10% FBS and the cell density was adjusted to 2.5E5 cells/mL. • 10. […]

Sequence of PD-1/PD-L1 (Q9NZQ7 19-238): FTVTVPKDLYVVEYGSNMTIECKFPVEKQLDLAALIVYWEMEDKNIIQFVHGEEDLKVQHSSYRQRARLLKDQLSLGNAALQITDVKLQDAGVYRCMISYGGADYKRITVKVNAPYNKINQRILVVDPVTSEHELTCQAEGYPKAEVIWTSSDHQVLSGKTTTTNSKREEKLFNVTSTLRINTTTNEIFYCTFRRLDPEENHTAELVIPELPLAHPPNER
Sequence of PD-L1/CHO-K1 cells (Q9NZQ7 19-290): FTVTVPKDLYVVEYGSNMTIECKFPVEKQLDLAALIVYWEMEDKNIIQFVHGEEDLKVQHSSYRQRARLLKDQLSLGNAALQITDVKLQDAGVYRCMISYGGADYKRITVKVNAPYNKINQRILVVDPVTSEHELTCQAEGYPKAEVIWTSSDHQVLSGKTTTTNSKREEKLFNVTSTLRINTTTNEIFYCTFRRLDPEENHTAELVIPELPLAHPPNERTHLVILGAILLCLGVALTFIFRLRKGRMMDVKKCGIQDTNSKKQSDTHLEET

IC50 (PD-1/PD-L1)	Internalization (PD-L1/CHO-K1 cells)	EC50 [1]	SMILES
8.62 nM	98.10%	111 nM	O=C1COc2cc(-c3cccc(-c4cccc(-c5ccc6c(c5)OCC(=O)N6C[C@H]5CCCN5)c4Cl)c3Cl)ccc2N1C[C@H]1CCCN1 [Compound 529]
3.58 nM	67.00%	0.3 nM	O=C(O)[C@H](CO)NCCN1C(=O)COc2cc(-c3cccc(-c4cccc(-c5ccc6c(c5)OCC(=O)N6CCN[C@@H](CO)C(=O)O)c4Cl)c3Cl)ccc21 [Compound 465]
